Reference: patent US20150071967A1, “Tolerisation-Inducing Composition” (University of Bristol, priority 2012, published 2015)

Columns and labels:
[1] = test system: β-catenin; experiment: beta-catenin Western blot in Th1 CD4+ cells; type: cell-based, mouse; conditions: for β-catenin accumulation (Western blot): CD4+ cells, 2 μM CHIR99021, 5 μM SB216763, 10 μM SB627772; for β-catenin levels (Western blot): Th1 cells restimulated with APCs and peptide, indicated concentrations, day 7
Protocol: G. Splenocytes from a naive Tg4 mouse were cultured in the presence of peptide MBP Ac1-9 (10 μg/ml) and IL-12 with IL-2 added on day 3 to polarise cells to a Th1 phenotype. On day 7 cells were restimulated with fresh irradiated APCs from a B10_PL mouse, peptide Ac1-9 of MBP (10 μg/ml) and the indicated concentrations of CHIR99021, SB216763 or SB627772. On day 7 of restimulation, CD4^+ cells were lysed in RIPA buffer, subjected to Western blotting and probed with beta catenin antibody. The membrane was stripped and reprobed for GAPDH as a loading control.
Splenocytes from a naive Tg4 mouse were cultured in the presence of peptide MBP Ac1-9 (10 μg/ml) and IL12 with IL2 added on day 3 to polarise cells to a Th1 phenotype. On day 7 cells were restimulated with fresh irradiated APCs, peptide Ac1-9 of MBP (10 μg/ml) and the indicated concentrations of SB216763 or CHIR99021. On day 7 of restimulation, cells were lysed in RIPA buffer, subjected to Western blotting and probed with beta catenin antibody. The membrane was stripped and reprobed for GAPDH as a loading control. GSK-3 consititutively phosphorylates the β-catenin protein, leading to its degradation.

[2] = test system: Th1 cells; experiment: IL-10 mRNA by qPCR in Th1 CD4+ cells; type: cell-based, mouse; conditions: IL-10 relative to HPRT1
Protocol: F. Splenocytes from a naive Tg4 mouse were cultured in the presence of peptide MBP Ac1-9 (10 μg/ml) and IL-12 with IL-2 added on day 3 of culture to polarise CD4+ cells towards a Th1 phenotype. On day 7 of culture, Th1 cells were restimulated with fresh irradiated APCs from a B10_PL mouse in the presence of DMSO (1:1000; Control), CHIR99021 (2 μM), SB216763 (5 μM) or SB627772 (10 µM) as well as peptide MBP Ac1-9 (10 μg/ml). IL-2 was added on day 3 of culture. On day 7 of restimulation live CD4^+ cells were selected and stimulated with anti CD3/CD28 antibodies for 16 hrs. RNA was extracted and IL-10 mRNA quantified by qPCR. IL-10 quantities are shown relative to HPRT1 control.
(§1) In a separate experiment, CD4+ cells from Tg4 mice which express TCR specific for the peptide Ac[1-9] of MBP were polarised to a Th1 phenotype and then cultured in the presence of GSK3 inhibitors. Three structurally distinct inhibitors, CHIR99021, SB216763 and SB627772 were used to minimise effects of off-target inhibition.

[3] = test system: APC / Th1 CD4+ cells; experiment: IL-10 with APCs from WT or IL-10 knockout mice (ICCS, ELISA); type: cell-based, mouse; conditions: 2 μM CHIR99021, APCs from WT or IL10 knockout mice, ICCS and day 3 ELISA
Protocol: A. Splenocytes from a naive Tg4 mouse were cultured in the presence of peptide MBP Ac1-9 (10 μg/ml) and IL-12 with IL-2 added on day 3 of culture to polarise CD4+ cells towards a Th1 phenotype. On day 7 of culture, Th1 cells were restimulated with fresh irradiated APCs from either a B10_PL or B10_PL IL10^−/− mouse in the presence of DMSO (1:1000; Control) or CHIR99021 (2 μM). IL-2 was added on day 3 of culture and intracellular cytokine staining for […] and IL-10 carried out on day 7 of restimulation after PMA and lonomycin stimulation. Data are plots gated on live CD4^+ cells and are representative of 3 independent experiments. B. Tissue culture supernatants were taken on day 3 of restimulation and analysed for IL-10 by ELISA. Data are mean+/−SEM and are representative of 3 independent experiments. Splenocytes from a naive Tg4 mouse were cultured in the presence of either: (a) peptide MBP Ac1-9 (10 μg/ml) and IL12 with IL2 added on day 3 to polarise cells to a Th1 phenotype; or (b) IL4 and anti IFNγ with IL2 added on day 3 to polarise cells to a Th2 phenotype. On day 7 CD4+ cells were restimulated with fresh irradiated APCs from either WT or IL10 knockout mice, 2 μM CHIR99021 or 0.02% DMSO (vehicle control) and peptide […] of MBP (10 μg/ml). Supernatants were taken in triplicate on day 3 and analysed for IL-10 by ELISA (FIG. 3 (E)). […]

[4] = test system: Th1 cells; experiment: IL-10 protein in Th1-polarised CD4+ cells restimulated with GSK-3 inhibitors (ICCS, bead immunoassay); type: cell-based, mouse; conditions: for IL-10 protein: Th1 CD4+ cells restimulated with APCs and peptide or with anti-CD3/anti-CD28 coated beads; for Intracellular IL-10 levels: Th1 cells restimulated with anti CD3/anti CD28 Dynabeads, 2 μM CHIR99021 or 3 μM SB216763, ICCS day 7
Protocol: A. Splenocytes from a naive Tg4 mouse were cultured in the presence of peptide MBP Ac1-9 (10 μg/ml) and IL-12 with IL-2 added on day 3 of culture to polarise CD4+ cells towards a Th1 phenotype. On day 7 of culture, Th1 cells were restimulated with fresh irradiated APCs from a B10_PL mouse in the presence of DMSO (1:1000; Control), CHIR99021 (2 μM), SB216763 (5 μM) or SB627772 (10 μM) as well as peptide MBP Ac1-9 (10 μg/ml). IL-2 was added on day 3 of culture and intracellular cytokine staining for IFNγ and IL-10 carried out on day 7 of restimulation after PMA and lonomycin stimulation. Data are plots gated on live CD4^+ cells and are representative of 5 independent experiments.
C. Splenocytes from a naive Tg4 mouse were cultured in the presence of peptide MBP Ac1-9 (10 μg/ml) and IL-12 with IL-2 added on day 3 of culture to polarise CD4+ cells towards a Th1 phenotype. On day 7 of culture, Th1 CD4+ cells were isolated and restimulated with anti-CD3/anti-CD28 coated beads in the presence of IL-2 and DMSO (1:1000; Control), CHIR99021 (2 μM), SB216763 (5 μM) or SB627772 (10 μM). Intracellular cytokine staining for IFNγ and IL-10 was carried out on day 7 of restimulation after PMA and lonomycin stimulation. Data are plots gated on live CD4^+ cells and are representative of 4 independent experiments.
E. Tissue culture supernatants were taken on day 3 of restimulation and analysed for IL-10 by fluorescent bead immunoassay. Data are mean+/−SEM and are representative of 3 independent experiments.
Splenocytes from a naive Tg4 mouse were cultured in the presence of peptide MBP Ac1-9 (10 μg/ml) and IL12 with IL2 added on day 3 to polarise cells to a Th1 phenotype. On day 7, cells were restimulated with anti CD3/anti CD28 Dynabeads and 2 μM CHIR99021, 3 μM SB216763 or 0.02% DMSO (vehicle control). Cells were analysed by ICCS on Day 7 after stimulation. Intracellular IL-10 levels were increased following treatment with either GSK-3 inhibitor (CHIR99021 or SB216763).
as §1

[5] = test system: naive CD4+ T cells; experiment: IL-10 in naive CD4+ T cells cultured with GSK-3 inhibitors (ICCS, bead immunoassay); type: cell-based, mouse; conditions: for IL-10 production: naive CD4+CD62L+ T-cells from Tg4 spleens, cultured in the presence of GSK3 inhibitors; for Intracellular IL-10 levels: naive Tg4 CD4+ cells, anti CD3/anti CD28 Dynabeads, 2 μM CHIR99021 or 3 μM SB216763, ICCS day 7
Protocol: A. CD4^+/CD62L^+ T cells were isolated from Tg4 splenocytes and cultured with anti-CD3/anti-CD28 coated beads in the presence of IL-2 and DMSO (1:1000; Control), CHIR99021 (2 μM), SB216763 (5 μM) or SB627772 (10 μM). Intracellular cytokine staining for […] and IL-10 was carried out on day 7 of restimulation after PMA and lonomycin stimulation. Data are plots gated on live CD4^+ cells and are representative of 3 independent experiments.
B. Tissue culture supernatants were taken on day 3 of restimulation and analysed for IL-10 by fluorescent bead immunoassay. Data are mean+/−SEM of 3 independent experiments.
CD4+ cells purified from a naive Tg4 spleen were cultured in the presence of 2 μM CHIR99021, 3 μM SB216763 or 0.02% DMSO (vehicle control) with anti CD3/anti CD28 Dynabeads. Cells were analysed by ICCS on Day 7 after stimulation.
as §1

[6] = test system: β-catenin; conditions: cited from earlier work

| SMILES | β-catenin accumulation (Western blot) [1] | β-catenin levels (Western blot) [1] | IL-10 mRNA (qPCR) [2] | IL-10 in / produced by the APC [3] | IL-10 protein [4] | Intracellular IL-10 levels [4] | IL-10 production [5] | Intracellular IL-10 levels [5] | Level of β-catenin [6] |
| --- | --- | --- | --- | --- | --- | --- | --- | --- | --- |
| Cc1c[nH]c(-c2cnc(NCCNc3ccc(C#N)cn3)nc2-c2ccc(Cl)cc2Cl)n1 [CHIR99021] | no accumulation of β-catenin | degradation of β-catenin appears to be inhibited, leading to build up of the β-catenin protein | upregulation | Neither the intracellular level of IL-10 in the APC nor the production of IL-10 by the APC was enhanced | significantly increased | increased | did not show any change | not significantly affected |  |
| Cn1cc(C2=C(c3ccc(Cl)cc3Cl)C(=O)NC2=O)c2ccccc21 [SB216763] | no accumulation of β-catenin | does not appear to cause a significant effect on β-catenin levels | upregulation |  | significantly increased | increased | did not show any change | not significantly affected |  |
| O=C1NC(=O)C(c2ccccc2[N+](=O)[O-])=C1Nc1ccc(O)c(Cl)c1 [SB415286] |  |  |  |  |  |  |  |  | elevate the level of 13-catenin |
